Where a SMILES comes first, the peptide text is derived from it. Bridges are numbered along the chain shown (N, C = ends). [ ]: non-standard residue; d: D form. The star is where a group is joined. ξ: configuration not given here. Pentadecanoyl(3ξ-OH,15-Gua) = N=C(N)NCCCCCCCCCCCCC(O)CC(=O)*; d(aThr) = C[C@@H](O)[C@@H](N)C(=O)O
Tests used:
[1] = test system: Alternaria solani (ALTESO); test: In vitro antifungal 96-well plate assay (PRESTOBLUE); assay type: cell-based; settings: for potency of asparagine analogue relative to its glutamine counterpart: Fusaricidin A vs Fusaricidin B, LiF08a vs LiF08b; for potency of asparagine analogue relative to its glutamine counterpart / relative potency of analogues differing at amino acid positions (2) and (3): FIG. 17; for relative potency of analogues differing at amino acid positions (2) and (3): Fusaricidin A, LiF05a, LiF06a, LiF08a compared; for Efficacy in % found: 0.25 mg/mL, alone
[2] = test system: Paenibacillus sp. strain NRRL B-50972; test: Antibiotic sensitivity on sLB agar; assay type: cell-based; settings: growth after 24, 48, 72 hours at 30° C.
[3] = test system: Colletotrichum lagenarium (COLLLA); test: In vitro antifungal 96-well plate assay (PRESTOBLUE); assay type: cell-based; settings: Minimum Inhibitory Concentration for 80%
[4] = test system: Pseudomonas syringae (PSDMTM); test: In vitro antibacterial 96-well plate assay (absorbance); settings: NDR = no inhibition of bacterial growth at the highest concentrations tested
Protocol: (§1) The in vitro antibacterial 96-well plate assay uses absorbance as an indicator for bacterial growth. The assay measures the potency of a sample to inhibit bacterial growth by comparing the absorbance of the untreated wells to the sample wells. The last dilution/concentration that inhibits the growth of the bacteria is called the MIC (minimum inhibitory concentration) and this value can be used to compare the efficacy of different samples. The assay was evaluated with three agricultural-relevant bacterial diseases: Xanthomonas campestris (XANTAV), Pseudomonas syringae (PSDM™), and Erwinia carotovora (ERWICA).

[5] = test system: Erwinia carotovora (ERWICA); test: as above; settings: NDR = no inhibition of bacterial growth at the highest concentrations tested
Protocol: as §1

[6] = test system: Botrytis cinerea (BOTRCI); test: In vitro antifungal 96-well plate assay (PRESTOBLUE); assay type: cell-based; settings: Minimum Inhibitory Concentration for 80%
Protocol: The in vitro antifungal 96-well plate assay utilizes the resazurin-based cell viability reagent PRESTOBLUE® as an indicator for fungal growth. […] The assay was prepared with three agricultural-relevant fungal diseases: Alternaria solani ([…]), Colletotrichum lagenarium (COLLLA), and Botrytis cinerea (BOTRCI).

[7] = test system: Xanthomonas campestris (XANTAV); test: In vitro antibacterial 96-well plate assay (absorbance)
Protocol: as §1

SMILES: CC[C@@H](C)[C@H]1NC(=O)[C@@H](NC(=O)CC(O)CCCCCCCCCCCCN=C(N)N)[C@@H](C)OC(=O)[C@@H](C)NC(=O)[C@@H](CC(N)=O)NC(=O)[C@@H]([C@@H](C)O)NC(=O)[C@H]([C@@H](C)CC)NC1=O (some centres unmarked) [LiF08a] ({Pentadecanoyl(3ξ-OH,15-Gua)}-T[dI]I[d(aThr)][dN][dA]; ester 1-C)
- potency of asparagine analogue relative to its glutamine counterpart [1]: over twice more potent
- relative potency of analogues differing at amino acid positions (2) and (3) [1]: most potent

SMILES: CN(C)[C@@H]1C(=O)C(C(N)=O)=C(O)[C@@]2(O)C(=O)C3=C(O)c4c(O)cccc4[C@@](C)(O)[C@H]3C[C@@H]12 [Tetracyclin]
- Sensitive/Resistant ([2]; antibiotic 5 μg/mL): Sensitive

SMILES: O=C(N[C@H](CO)[C@H](O)c1ccc([N+](=O)[O-])cc1)C(Cl)Cl [Chloramphenicol]
- Sensitive/Resistant ([2]; antibiotic 5 μg/mL): Resistant

SMILES: CC(C)[C@@H]1NC(=O)[C@@H](C(C)C)NC(=O)[C@@H](NC(=O)CC(O)CCCCCCCCCCCCN=C(N)N)[C@@H](C)OC(=O)[C@@H](C)NC(=O)[C@@H](CC(N)=O)NC(=O)[C@@H]([C@@H](C)O)NC1=O (some centres unmarked) [Fusaricidin A] ({Pentadecanoyl(3ξ-OH,15-Gua)}-T[dV]V[d(aThr)][dN][dA]; ester 1-C)
- MIC80 COLLLA [3]: 6.3 ppm
- MIC80 PSDMTM [4]: NDR*
- potency of asparagine analogue relative to its glutamine counterpart [1]: over twice more potent
- relative potency of analogues differing at amino acid positions (2) and (3) [1]: most potent
- MIC80 ALTESO ([1]; Minimum Inhibitory Concentration for 80%): 1.6 ppm
- Efficacy in % found ([1]; Table 23): 39.0%
- Efficacy in % found ([1]; Table 24): 42.0%
- MIC80 ERWICA [5]: 75 ppm
- MIC80 BOTRCI [6]: 1.5 ppm
- MIC80 XANTAV [7]: 24 ppm

SMILES: CC[C@H]1OC(=O)[C@H](C)[C@@H](O[C@H]2C[C@@](C)(OC)[C@@H](O)[C@H](C)O2)[C@H](C)[C@@H](O[C@@H]2O[C@H](C)C[C@H](N(C)C)[C@H]2O)[C@](C)(O)C[C@@H](C)C(=O)[C@H](C)[C@@H](O)[C@]1(C)O [Erythromycin]
- Sensitive/Resistant ([2]; antibiotic 5 μg/mL): Sensitive

SMILES: CN[C@@H]1[C@H](O)[C@H](NC)[C@H]2O[C@@]3(O)C(=O)C[C@@H](C)O[C@H]3O[C@@H]2[C@H]1O [Spectinomycin]
- Sensitive/Resistant ([2]; antibiotic 100-250 μg/mL): Resistant (growth, albeit reduced,

SMILES: CCC[C@@H]1C[C@@H](C(=O)N[C@@H]([C@H]2O[C@H](SC)[C@H](O)[C@@H](O)[C@H]2O)[C@@H](C)O)N(C)C1 [Lincomycin]
- Sensitive/Resistant ([2]; antibiotic 25 μg/mL): Resistant
